The source of these data is patent US20250043299A1, “POINT MUTATIONS THAT BOOST AROMATIC AMINO ACID PRODUCTION AND CO2 ASSIMILATION IN PLANTS” (Wisconsin Alumni Research Foundation, priority 2021, published 2025).

Assay [1] concerns the target T1, DHS1^WT (Arabidopsis thaliana, UniProt P29976).
T1 construct: without the predicted plastid transit peptide (amino acid residues; 49-525, 34-507, and 52-527, respectively); made in house; host or cells: E. coli Rosetta-2
Description: DHS enzyme assay (colorimetric), recombinant DHS1^WT. The format is biochemical. Conditions: FIG. 2D. The method, then: (§1) To generate recombinant DHS proteins the pET28a vectors carrying the A. thaliana DHS1 (AtDHS1), AtDHS2, or AtDHS3 WT sequence without the predicted plastid transit peptide (amino acid residues; 49-525, 34-507, and 52-527, respectively) were expressed in E. coli Rosetta-2 cells and purified using Ni-affinity chromatography, exactly as was conducted previously (9). To generate DHS proteins with individual sota mutations via site-directed mutagenesis, these pET28a plasmid templates were diluted by 500-fold, mixed with 0.04 U/μL Phusion DNA polymerase (Thermo Scientific), 0.2 mM deoxynucleoside triphosphates (dNTPs), 1× Phusion reaction buffer (Thermo Scientific), and 0.5 μM forward and reverse mutagenesis primers (Table 10). The PCR reaction was run using the following protocol: 98° C. for 30 s followed by 20 cycles of 10 s at 98° C., 20 s at 70° C., 4.5 min at 72° C. with a final extension at 72° C. for 10 min. The PCR products were purified using a QIAquick Gel Extraction Kit (QIAGEN), treated with FastDigest DpnI (Thermo Scientific) to digest methylated plasmid template DNA for 20 min at 37° C., and transformed into E. coli cells. The mutagenized pET28a plasmids were sequenced to confirm that no errors were introduced during the mutagenesis process.
(§2) The DHS enzyme assays were conducted using the colorimetric method that we recently described (9). Briefly, the enzyme solution (7.7 μl) containing 50 mM Hepes (pH 7.4) was preincubated with an effector molecule(s) at room temperature for 15 min. For assays using recombinant protein and enzyme fractions isolated from plant leaves, 0.01 to 0.1 μg and approximately 50 μg of proteins were used, respectively. After adding 0.5 μl of 0.1 M dithiothreitol, the samples were further incubated at room temperature for 15 min. During these incubations, the substrate solution containing 50 mM Hepes (pH 7.4), 2 mM MnCl2, 4 mM E4P, and 4 mM PEP at final concentration was preheated at 37° C. The enzyme reaction was started by adding 6.8 μl of the substrate solution, then incubated at 37° C. for 30 min, and terminated by adding 30 μl of 0.6 M trichloroacetic acid. After a brief centrifugation, 5 μl of 200 mM NaIO4 (sodium meta-periodate) in 9 N H3PO4 was added to oxidize the enzymatic product and to incubate at 25° C. for 20 min. To stop the oxidation reaction, 20 μl of 0.75 M NaAsO2 (sodium arsenite), which was dissolved in 0.5 M Na2SO4 and 0.05 M H2SO4, was added and immediately mixed. After 5 min of incubation at room temperature, one-third of the sample solution was transferred to a new tube to be mixed with 50 μl of 40 mM thiobarbituric acid and incubated at 99° C. for 15 min in a thermal cycler. The mixture was added to 600 μl of cyclohexanone in eight-strip solvent-resistant plastic tubes, mixed vigorously, and centrifuged at 4500 g for 3 min to separate water- and cyclohexanone-based layers for the extraction off the developed pink chromophore. The absorbance of the pink supernatant was read at 549 nm with the microplate reader (Infinite 200 PRO, TECAN) to calculate DAHP production with the molar extinction coefficient at 549 nm (ε=549 nm) of 4.5×10^4 M^−1 cm^−1. Reaction mixtures with boiled enzymes were run in parallel and used as negative controls to estimate the background signal.

The target in assay [2] is T2, DHS2^WT (Arabidopsis thaliana, UniProt Q00218).
T2 construct: without the predicted plastid transit peptide (amino acid residues; 49-525, 34-507, and 52-527, respectively); made in house; host or cells: E. coli Rosetta-2
T2 sequence (Q00218 34-507): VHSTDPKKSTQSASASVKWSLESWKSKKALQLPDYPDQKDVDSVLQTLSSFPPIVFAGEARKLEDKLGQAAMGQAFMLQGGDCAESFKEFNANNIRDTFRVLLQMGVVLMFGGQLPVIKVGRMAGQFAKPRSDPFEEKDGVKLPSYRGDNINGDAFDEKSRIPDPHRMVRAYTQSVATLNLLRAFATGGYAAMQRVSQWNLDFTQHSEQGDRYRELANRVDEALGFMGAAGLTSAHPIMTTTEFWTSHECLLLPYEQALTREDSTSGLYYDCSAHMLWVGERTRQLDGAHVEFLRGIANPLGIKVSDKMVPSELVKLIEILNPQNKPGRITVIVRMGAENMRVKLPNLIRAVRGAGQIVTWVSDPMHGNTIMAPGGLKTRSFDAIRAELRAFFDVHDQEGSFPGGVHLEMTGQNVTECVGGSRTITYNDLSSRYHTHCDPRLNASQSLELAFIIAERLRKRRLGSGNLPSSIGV
Description: DHS enzyme assay, recombinant DHS2^WT. It is filed as biochemical. Particulars: for effect on DHS2 activity (effector screening): FIG. 2D; for inhibition at 1000 µM: effector at 1 mM. The method, then: as §1, §2

Assay [3] concerns the target T2, DHS2^WT. Description: Differential scanning fluorimetry (DSF) protein-ligand affinity analysis, DHS2^WT. Particulars: ligand at 1 mM. The format is binding. The method, then:
(§3) To examine the impact of the sota mutations on the interaction between DHS and AAA effectors (FIG. 22), a differential scanning fluorimetry (DSF) analysis (48) was conducted using the recombinant DHS2^WT and DHS2^A4 proteins. […] The fluorescence signal was monitored during the stepwise increase in temperature (1° C. per minute from 25° C. to 95° C.). The Tm was calculated by nonlinear regression analysis using the Boltzmann sigmoidal equation (48).
For orientation: DSF heats the sample and reads unfolding from a dye or from intrinsic fluorescence.

Assay [4] addresses T3, DHS2^A4 (Arabidopsis thaliana, UniProt Q00218, G222S).
T3 construct: without the predicted plastid transit peptide (amino acid residues; 49-525, 34-507, and 52-527, respectively); made in house; host or cells: E. coli
Description: Differential scanning fluorimetry (DSF) protein-ligand affinity analysis, DHS2^A4. The format is binding. Particulars: ligand at 1 mM. As for the experimental part:
as §3

In assay [5] the target is T4, Arabidopsis thaliana DHS2 (AtDHS2), wild type (DHS2^WT), SEQ ID NO:2 (Arabidopsis thaliana, UniProt Q00218).
T4 construct: without the predicted plastid transit peptide (amino acid residues; 49-525, 34-507, and 52-527, respectively); made in house; host or cells: E. coli Rosetta-2
T4 sequence (Q00218 34-507): as above
Particulars: reference 9; cited from earlier work.

The target in assay [6] is T3, DHS2^A4. The format is biochemical. Particulars: effector up to 1 mM. As for the experimental part:
as §1, §2

Assay [7] addresses T5, Arabidopsis thaliana DHS2 (SEQ ID NO:2) variant DHS2^A4 (sotaA4), G222S (Arabidopsis thaliana, UniProt Q00218, G222S).
T5 construct: without the predicted plastid transit peptide (amino acid residues; 49-525, 34-507, and 52-527, respectively); made in house; host or cells: E. coli
Description: biochemical. The format is biochemical. Conditions: up to 1 mM Tyr, Trp (FIG. 2C); shikimate, arogenate, prephenate at 1 mM (FIG. 21A). The method, then:
as §1, §2

T3 sequence (Q00218 34-507 G222S): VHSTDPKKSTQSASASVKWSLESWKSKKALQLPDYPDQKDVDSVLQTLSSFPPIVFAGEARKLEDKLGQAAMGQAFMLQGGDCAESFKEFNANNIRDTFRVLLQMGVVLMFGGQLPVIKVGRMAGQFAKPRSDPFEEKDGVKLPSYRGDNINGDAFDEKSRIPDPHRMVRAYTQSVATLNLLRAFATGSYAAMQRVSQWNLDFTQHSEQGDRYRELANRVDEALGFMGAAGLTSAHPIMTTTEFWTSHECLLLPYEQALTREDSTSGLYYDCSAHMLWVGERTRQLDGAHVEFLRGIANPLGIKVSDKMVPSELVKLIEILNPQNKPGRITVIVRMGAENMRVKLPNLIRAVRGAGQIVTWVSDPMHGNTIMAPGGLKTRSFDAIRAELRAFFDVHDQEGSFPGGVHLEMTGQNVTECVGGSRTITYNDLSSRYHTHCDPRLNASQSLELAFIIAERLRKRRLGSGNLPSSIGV
T1 sequence (P29976 49-525): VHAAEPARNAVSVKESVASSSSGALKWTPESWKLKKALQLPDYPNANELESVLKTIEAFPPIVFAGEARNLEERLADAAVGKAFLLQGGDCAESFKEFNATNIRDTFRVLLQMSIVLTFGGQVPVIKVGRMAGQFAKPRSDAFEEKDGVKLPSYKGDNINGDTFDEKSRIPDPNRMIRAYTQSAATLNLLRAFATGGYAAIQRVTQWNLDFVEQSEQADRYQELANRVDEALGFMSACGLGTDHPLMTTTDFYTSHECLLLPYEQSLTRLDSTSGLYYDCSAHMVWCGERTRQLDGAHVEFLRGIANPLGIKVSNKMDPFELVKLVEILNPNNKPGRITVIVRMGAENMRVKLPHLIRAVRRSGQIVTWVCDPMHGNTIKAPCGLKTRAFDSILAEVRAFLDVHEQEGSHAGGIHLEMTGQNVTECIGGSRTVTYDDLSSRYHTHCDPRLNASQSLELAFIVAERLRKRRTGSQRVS
T5 sequence (Q00218 34-507 G222S): as the sequence (Q00218 34-507 G222S) above

Consider `Nc1ccccc1C(=O)[O-].[Na+]` [Anthranilate], for which the “effect on DHS1 activity (effector screening)” value in assay [1] is given as “did not affect the activity”. The “effect on DHS2 activity (effector screening)” value in assay [2] was “slight reduction”.

For `N[C@@H](Cc1ccccc1)C(=O)O` [Phe, phenylalanine], the “effect on melting temperature (Tm) of DHS2^WT” value in assay [3] is “no impact on the Tm”. Besides, the “effect on melting temperature (Tm) / binding of DHS2^A4” value in assay [4] is “no impact on the Tm”.

Turning to `O=C(O)Cc1c[nH]c2ccccc12` [IAA, indole-3-acetate], the “effect on DHS1 activity (effector screening)” value in assay [1] is “inhibit”. In addition, the “effect on DHS2 activity (effector screening)” value in assay [2] is “inhibit”.

Regarding `NCCc1ccc(O)cc1` [tyramine], the inhibition – broadly, the relative decrease from the control value, in per cent – at 1000 µM in assay [2] was ~30%.

Regarding `O=C(O)C(=O)CC1(C(=O)O)C=CC(O)C=C1` (centres unmarked) [prephenate], in assay [5], the “inhibition of DHS2” value is “slightly inhibit DHS2”. The “inhibition of DHS2^A4 activity” value in assay [6] is on record as “still inhibited”. For the same compound, the “inhibition of DHS2^A4” value in assay [7] was “still inhibited”.

`OCCc1ccc(O)cc1` [Tyrosol]: the inhibition at 1000 µM in assay [2] is ~30%.

Take `O=C(O)C1=C[C@@H](O)[C@@H](O)[C@H](O)C1` [shikimate]: the “inhibition of DHS2” value in assay [5] is given as “slightly inhibit DHS2”. In addition, the “inhibition of DHS2^A4 activity” value in assay [6] was “still inhibited”. In addition, in assay [7], the “inhibition of DHS2^A4” value is reported as “still inhibited”.
